Literature values as cited in US20080242855A1, “Process for Producing Flavone C Glycoside Derivatives” (priority 2004, published 2008).

Columns and labels:
peritoneal mast cells = conditions: reported in Japanese Patent Laid-Open No. 2004-035474
[1] = tested on: auricular edema induced by 2,4-dinitrofluorobenzen (DNFB); conditions: reported in Japanese Patent Laid-Open No. 2004-035474

| Structure (SMILES) | inhibitory effect on histamine release from peritoneal mast cells (peritoneal mast cells) | inhibitory effect on the formation of auricular edema induced by 2,4-dinitrofluorobenzen (DNFB) [1] |
| --- | --- | --- |
| O=c1cc(-c2ccc(O)cc2)oc2cc3c(c(O)c12)[C@@H]1O[C@H](CO)[C@@H](O)[C@H](O)[C@@H]1O3 [formula (1)] | inhibitory effect | inhibitory effect |
| O=c1cc(-c2ccc(O)cc2)oc2c3c(cc(O)c12)O[C@H]1[C@@H](O)[C@H](O)[C@@H](CO)O[C@@H]31 [formula (4)] | inhibitory effect | inhibitory effect |
